{
  "source": "patent US9086405B2",
  "about": "“Animal stroke model” (UNIVERSITY OF PRINCE EDWARD ISLAND, priority 2010, dated 2015)",
  "key": {"[1]": {"test_system": "male Sprague-Dawley rats", "assay": "Suture-induced MCAO (30 minutes) followed by 5.5 hours of reperfusion, infarct volume by TTC staining", "type": "in vivo, rat", "details": "for infarct size / neuroprotection (infarct volume): 5.5 hours reperfusion; for infarct size: p<0.05, FIG. 7; for neuroprotection (infarct volume): inosine 16 mg/kg after 30 mins of occlusion prior to suture removal; for neuroprotective effect (infarct volume): vs vehicle, FIG. 9"}, "[2]": {"test_system": "male Sprague-Dawley rats", "assay": "Suture-induced \"permanent\" (6-hour) MCAO, infarct volume by TTC staining", "type": "in vivo, rat", "details": "for infarct size: p<0.05, FIG. 6"}},
  "note": "“Also recorded” adds a separate entry of the source.",
  "data": [
    {"compound": "estrogen", "values": [
      {"measurement": "infarct size", "setting": "[1]; estrogen 1×10-2 mg/kg i.v. 30 minutes after MCAO (immediately prior to suture removal), vs saline", "value": "significant decrease in infarct size"},
      {"measurement": "infarct size", "setting": "[1]; estrogen 1×10-2 mg/kg i.v. 30 minutes after MCAO (immediately prior to suture removal), vs saline, listed as Estrogen", "value": "showed neuroprotective abilities"},
      {"measurement": "infarct size", "setting": "[2]; estrogen 1×10-2 mg/kg i.v. 30 minutes prior to 6 hours of suture induced-MCAO, vs estrogen vehicle (saline)", "value": "significant decrease in infarct size; also recorded: significant levels of neuroprotection"}
    ]},
    {"compound": "OC[C@H]1O[C@@H](n2cnc3c(O)ncnc32)[C@H](O)[C@@H]1O", "note": "[inosine]", "values": [
      {"measurement": "neuroprotection (infarct volume)", "setting": "[1]; FIG. 8", "value": "No neuroprotection"},
      {"measurement": "neuroprotection (infarct volume)", "setting": "[1]; FIG. 8, listed as Inosine", "value": "did not cause neuroprotection"}
    ]},
    {"compound": "CC1=NN(c2ccccc2)C(=O)C1", "note": "[edaravone]", "values": [
      {"measurement": "infarct size", "setting": "[1]; edaravone 5, 10 or 20 mg/kg i.v. after 30 minutes of MCAO (immediately prior to suture removal), vs 50% DMSO in saline", "value": "significant decreases in infarct size; also recorded: showed neuroprotective abilities"},
      {"measurement": "infarct size", "setting": "[1]; edaravone 5, 10 or 20 mg/kg i.v. after 30 minutes of MCAO (immediately prior to suture removal), vs 50% DMSO in saline, listed as Edaravone", "value": "very powerful neuroprotection"},
      {"measurement": "infarct size", "setting": "[2]; edaravone 10, 20 or 40 mg/kg i.v. 30 minutes prior to 6 hours of suture induced-MCAO, vs vehicle 50% DMSO in saline", "value": "significant decreases in infarct size; also recorded: significant levels of neuroprotection"}
    ]},
    {"compound": "Nc1nc2c(ncn2[C@@H]2O[C@H](CO)[C@@H](O)[C@H]2O)c(=O)[nH]1", "note": "[guanosine]", "values": [
      {"measurement": "neuroprotective effect (infarct volume)", "setting": "[1]; guanosine 16 mg/kg injected 30 minutes (+30) after occlusion, immediately prior to suture removal", "value": "greatest benefit; also recorded: most prominent"},
      {"measurement": "neuroprotective effect (infarct volume)", "setting": "[1]; guanosine 16 mg/kg injected 60 minutes (+60) from start of MCAO, 30 minutes post-suture removal", "value": "significant benefit; also recorded: significant neuroprotection"},
      {"measurement": "infarct volume", "setting": "[1]; guanosine 1, 2, 4, 8 or 16 mg/kg intraperitoneally 30 minutes after MCAO (prior to suture removal), 5.5 h reperfusion, FIG. 8", "value": "dose-dependent decrease in infarct volume"},
      {"measurement": "infarct volume", "setting": "[2]; guanosine 1, 2, 4, 8 or 16 mg/kg intraperitoneally 30 minutes prior to \"permanent\" (6-hour) occlusion, FIG. 8", "value": "decrease in infarct volume; also recorded: reduced infarct size"}
    ]}
  ]
}
